Numbers after ± are expanded uncertainties.
Test: xn = mol fraction of the nth substance listed
Conditions: 101 kPa, Liquid; for speed of sound: Sing-around technique in a fixed-path interferometer; for mass density: Vibrating tube method

## NCCNCCN [di(2-aminoethyl)amine] + CCCCO
293.15 K, x1 = 0.0517
  speed of sound: 1288 ± 0.8 m/s
  mass density: 821.995 ± 0.14 kg/m3
293.15 K, x1 = 0.1085
  speed of sound: 1319.9 ± 0.8 m/s
  mass density: 834.306 ± 0.14 kg/m3
293.15 K, x1 = 0.153
  speed of sound: 1343.3 ± 0.9 m/s
  mass density: 843.084 ± 0.13 kg/m3
293.15 K, x1 = 0.2024
  speed of sound: 1369.5 ± 0.9 m/s
  mass density: 852.085 ± 0.13 kg/m3
293.15 K, x1 = 0.2524
  speed of sound: 1393.7 ± 0.9 m/s
  mass density: 860.585 ± 0.13 kg/m3
293.15 K, x1 = 0.3079
  speed of sound: 1419.6 ± 0.9 m/s
  mass density: 869.265 ± 0.12 kg/m3
293.15 K, x1 = 0.4082
  speed of sound: 1464.1 ± 0.9 m/s
  mass density: 883.406 ± 0.12 kg/m3
293.15 K, x1 = 0.5013
  speed of sound: 1502.4 ± 0.9 m/s
  mass density: 895.464 ± 0.12 kg/m3
293.15 K, x1 = 0.6067
  speed of sound: 1543.5 ± 0.9 m/s
  mass density: 908.152 ± 0.11 kg/m3
293.15 K, x1 = 0.7079
  speed of sound: 1581.6 ± 0.9 m/s
  mass density: 919.755 ± 0.11 kg/m3
293.15 K, x1 = 0.8
  speed of sound: 1616.5 ± 0.9 m/s
  mass density: 929.638 ± 0.1 kg/m3
293.15 K, x1 = 0.8548
  speed of sound: 1637 ± 0.9 m/s
  mass density: 935.634 ± 0.1 kg/m3
293.15 K, x1 = 0.9075
  speed of sound: 1656.6 ± 0.9 m/s
  mass density: 941.042 ± 0.1 kg/m3
293.15 K, x1 = 0.9525
  speed of sound: 1673.3 ± 1 m/s
  mass density: 945.451 ± 0.099 kg/m3
298.15 K, x1 = 0.0517
  speed of sound: 1271 ± 0.8 m/s
  mass density: 818.115 ± 0.14 kg/m3
  viscosity: 3.066 ± 0.035 mPa·s
298.15 K, x1 = 0.1085
  speed of sound: 1302.9 ± 0.8 m/s
  mass density: 830.363 ± 0.14 kg/m3
  viscosity: 3.551 ± 0.04 mPa·s
298.15 K, x1 = 0.153
  speed of sound: 1327.1 ± 0.8 m/s
  mass density: 839.101 ± 0.14 kg/m3
  viscosity: 3.907 ± 0.044 mPa·s
298.15 K, x1 = 0.2024
  speed of sound: 1351.9 ± 0.9 m/s
  mass density: 848.068 ± 0.13 kg/m3
  viscosity: 4.256 ± 0.048 mPa·s
298.15 K, x1 = 0.2524
  speed of sound: 1376.5 ± 0.9 m/s
  mass density: 856.54 ± 0.13 kg/m3
  viscosity: 4.526 ± 0.051 mPa·s
298.15 K, x1 = 0.3079
  speed of sound: 1402.5 ± 0.9 m/s
  mass density: 865.207 ± 0.12 kg/m3
  viscosity: 4.772 ± 0.053 mPa·s
298.15 K, x1 = 0.4082
  speed of sound: 1446.5 ± 0.9 m/s
  mass density: 879.335 ± 0.12 kg/m3
  viscosity: 5.076 ± 0.056 mPa·s
298.15 K, x1 = 0.5013
  speed of sound: 1484.6 ± 0.9 m/s
  mass density: 891.374 ± 0.12 kg/m3
  viscosity: 5.214 ± 0.058 mPa·s
298.15 K, x1 = 0.6067
  speed of sound: 1525.4 ± 0.9 m/s
  mass density: 904.038 ± 0.11 kg/m3
  viscosity: 5.317 ± 0.058 mPa·s
298.15 K, x1 = 0.7079
  speed of sound: 1562.9 ± 0.9 m/s
  mass density: 915.617 ± 0.11 kg/m3
  viscosity: 5.331 ± 0.058 mPa·s
298.15 K, x1 = 0.8
  speed of sound: 1597.5 ± 0.9 m/s
  mass density: 925.474 ± 0.11 kg/m3
  viscosity: 5.368 ± 0.059 mPa·s
298.15 K, x1 = 0.8548
  speed of sound: 1617.8 ± 0.9 m/s
  mass density: 931.448 ± 0.1 kg/m3
  viscosity: 5.433 ± 0.059 mPa·s
298.15 K, x1 = 0.9075
  speed of sound: 1637.4 ± 0.9 m/s
  mass density: 936.842 ± 0.1 kg/m3
  viscosity: 5.485 ± 0.06 mPa·s
298.15 K, x1 = 0.9525
  speed of sound: 1653.8 ± 0.9 m/s
  mass density: 941.233 ± 0.1 kg/m3
  viscosity: 5.562 ± 0.06 mPa·s
303.15 K, x1 = 0.0517
  speed of sound: 1254.2 ± 0.8 m/s
  mass density: 814.209 ± 0.14 kg/m3
  viscosity: 2.576 ± 0.03 mPa·s
303.15 K, x1 = 0.1085
  speed of sound: 1285.9 ± 0.8 m/s
  mass density: 826.401 ± 0.14 kg/m3
  viscosity: 3.027 ± 0.035 mPa·s
303.15 K, x1 = 0.153
  speed of sound: 1309.9 ± 0.8 m/s
  mass density: 835.096 ± 0.14 kg/m3
  viscosity: 3.256 ± 0.037 mPa·s
303.15 K, x1 = 0.2024
  speed of sound: 1335.1 ± 0.8 m/s
  mass density: 844.036 ± 0.13 kg/m3
  viscosity: 3.52 ± 0.04 mPa·s
303.15 K, x1 = 0.2524
  speed of sound: 1359.6 ± 0.9 m/s
  mass density: 852.484 ± 0.13 kg/m3
  viscosity: 3.768 ± 0.043 mPa·s
303.15 K, x1 = 0.3079
  speed of sound: 1385.5 ± 0.9 m/s
  mass density: 861.136 ± 0.13 kg/m3
  viscosity: 3.919 ± 0.044 mPa·s
303.15 K, x1 = 0.4082
  speed of sound: 1429.3 ± 0.9 m/s
  mass density: 875.244 ± 0.12 kg/m3
  viscosity: 4.169 ± 0.047 mPa·s
303.15 K, x1 = 0.5013
  speed of sound: 1467.1 ± 0.9 m/s
  mass density: 887.28 ± 0.12 kg/m3
  viscosity: 4.262 ± 0.048 mPa·s
303.15 K, x1 = 0.6067
  speed of sound: 1507.7 ± 0.9 m/s
  mass density: 899.921 ± 0.11 kg/m3
  viscosity: 4.302 ± 0.048 mPa·s
303.15 K, x1 = 0.7079
  speed of sound: 1545.1 ± 0.9 m/s
  mass density: 911.479 ± 0.11 kg/m3
  viscosity: 4.323 ± 0.049 mPa·s
303.15 K, x1 = 0.8
  speed of sound: 1579.2 ± 0.9 m/s
  mass density: 921.305 ± 0.11 kg/m3
  viscosity: 4.335 ± 0.049 mPa·s
303.15 K, x1 = 0.8548
  speed of sound: 1598.6 ± 0.9 m/s
  mass density: 927.266 ± 0.1 kg/m3
  viscosity: 4.346 ± 0.049 mPa·s
303.15 K, x1 = 0.9075
  speed of sound: 1617.5 ± 0.9 m/s
  mass density: 932.668 ± 0.1 kg/m3
  viscosity: 4.366 ± 0.049 mPa·s
303.15 K, x1 = 0.9525
  speed of sound: 1633.6 ± 0.9 m/s
  mass density: 937.017 ± 0.1 kg/m3
  viscosity: 4.422 ± 0.05 mPa·s
308.15 K, x1 = 0.0517
  speed of sound: 1237.4 ± 0.8 m/s
  mass density: 810.286 ± 0.14 kg/m3
  viscosity: 2.27 ± 0.026 mPa·s
308.15 K, x1 = 0.1085
  speed of sound: 1269.3 ± 0.8 m/s
  mass density: 822.424 ± 0.14 kg/m3
  viscosity: 2.622 ± 0.03 mPa·s
308.15 K, x1 = 0.153
  speed of sound: 1293.2 ± 0.8 m/s
  mass density: 831.084 ± 0.14 kg/m3
  viscosity: 2.81 ± 0.032 mPa·s
308.15 K, x1 = 0.2024
  speed of sound: 1318.5 ± 0.8 m/s
  mass density: 839.988 ± 0.13 kg/m3
  viscosity: 3.027 ± 0.035 mPa·s
308.15 K, x1 = 0.2524
  speed of sound: 1343 ± 0.8 m/s
  mass density: 848.419 ± 0.13 kg/m3
  viscosity: 3.198 ± 0.037 mPa·s
308.15 K, x1 = 0.3079
  speed of sound: 1368.6 ± 0.9 m/s
  mass density: 857.059 ± 0.13 kg/m3
  viscosity: 3.341 ± 0.038 mPa·s
308.15 K, x1 = 0.4082
  speed of sound: 1412.2 ± 0.9 m/s
  mass density: 871.155 ± 0.12 kg/m3
  viscosity: 3.524 ± 0.04 mPa·s
308.15 K, x1 = 0.5013
  speed of sound: 1450.2 ± 0.9 m/s
  mass density: 883.174 ± 0.12 kg/m3
  viscosity: 3.617 ± 0.041 mPa·s
308.15 K, x1 = 0.6067
  speed of sound: 1490 ± 0.9 m/s
  mass density: 895.798 ± 0.12 kg/m3
  viscosity: 3.642 ± 0.041 mPa·s
308.15 K, x1 = 0.7079
  speed of sound: 1527.2 ± 0.9 m/s
  mass density: 907.33 ± 0.11 kg/m3
  viscosity: 3.671 ± 0.042 mPa·s
308.15 K, x1 = 0.8
  speed of sound: 1560.9 ± 0.9 m/s
  mass density: 917.129 ± 0.11 kg/m3
  viscosity: 3.689 ± 0.042 mPa·s
308.15 K, x1 = 0.8548
  speed of sound: 1580.1 ± 0.9 m/s
  mass density: 923.082 ± 0.11 kg/m3
  viscosity: 3.712 ± 0.042 mPa·s
308.15 K, x1 = 0.9075
  speed of sound: 1598.6 ± 0.9 m/s
  mass density: 928.432 ± 0.1 kg/m3
  viscosity: 3.731 ± 0.042 mPa·s
308.15 K, x1 = 0.9525
  speed of sound: 1614.5 ± 0.9 m/s
  mass density: 932.798 ± 0.1 kg/m3
  viscosity: 3.771 ± 0.043 mPa·s
313.15 K, x1 = 0.0517
  speed of sound: 1220.9 ± 0.8 m/s
  mass density: 806.326 ± 0.15 kg/m3
313.15 K, x1 = 0.1085
  speed of sound: 1253.3 ± 0.8 m/s
  mass density: 818.415 ± 0.14 kg/m3
313.15 K, x1 = 0.153
  speed of sound: 1277.3 ± 0.8 m/s
  mass density: 827.042 ± 0.14 kg/m3
313.15 K, x1 = 0.2024
  speed of sound: 1302.4 ± 0.8 m/s
  mass density: 835.917 ± 0.14 kg/m3
313.15 K, x1 = 0.2524
  speed of sound: 1327.4 ± 0.8 m/s
  mass density: 844.331 ± 0.13 kg/m3
313.15 K, x1 = 0.3079
  speed of sound: 1352.7 ± 0.9 m/s
  mass density: 852.959 ± 0.13 kg/m3
313.15 K, x1 = 0.4082
  speed of sound: 1396.2 ± 0.9 m/s
  mass density: 867.047 ± 0.12 kg/m3
313.15 K, x1 = 0.5013
  speed of sound: 1433.9 ± 0.9 m/s
  mass density: 879.057 ± 0.12 kg/m3
313.15 K, x1 = 0.6067
  speed of sound: 1473.9 ± 0.9 m/s
  mass density: 891.664 ± 0.12 kg/m3
313.15 K, x1 = 0.7079
  speed of sound: 1510.5 ± 0.9 m/s
  mass density: 903.173 ± 0.11 kg/m3
313.15 K, x1 = 0.8
  speed of sound: 1543.6 ± 0.9 m/s
  mass density: 912.964 ± 0.11 kg/m3
313.15 K, x1 = 0.8548
  speed of sound: 1563 ± 0.9 m/s
  mass density: 918.81 ± 0.11 kg/m3
313.15 K, x1 = 0.9075
  speed of sound: 1580.1 ± 0.9 m/s
  mass density: 924.23 ± 0.11 kg/m3
313.15 K, x1 = 0.9525
  speed of sound: 1594.8 ± 0.9 m/s
  mass density: 928.584 ± 0.1 kg/m3
